pKi: −log10 of the molar value.
Tests used:
[1] = target: Neuronal acetylcholine receptor subunit alpha-4 (Homo sapiens, UniProt P43681)
[2] = target: Neuronal acetylcholine receptor subunit alpha-3 (Homo sapiens, UniProt P32297)
[3] = target: Neuronal acetylcholine receptor subunit alpha-2 (Homo sapiens, UniProt Q15822)
Neuronal acetylcholine receptor subunit alpha-2, sequence (Q15822 whole entry): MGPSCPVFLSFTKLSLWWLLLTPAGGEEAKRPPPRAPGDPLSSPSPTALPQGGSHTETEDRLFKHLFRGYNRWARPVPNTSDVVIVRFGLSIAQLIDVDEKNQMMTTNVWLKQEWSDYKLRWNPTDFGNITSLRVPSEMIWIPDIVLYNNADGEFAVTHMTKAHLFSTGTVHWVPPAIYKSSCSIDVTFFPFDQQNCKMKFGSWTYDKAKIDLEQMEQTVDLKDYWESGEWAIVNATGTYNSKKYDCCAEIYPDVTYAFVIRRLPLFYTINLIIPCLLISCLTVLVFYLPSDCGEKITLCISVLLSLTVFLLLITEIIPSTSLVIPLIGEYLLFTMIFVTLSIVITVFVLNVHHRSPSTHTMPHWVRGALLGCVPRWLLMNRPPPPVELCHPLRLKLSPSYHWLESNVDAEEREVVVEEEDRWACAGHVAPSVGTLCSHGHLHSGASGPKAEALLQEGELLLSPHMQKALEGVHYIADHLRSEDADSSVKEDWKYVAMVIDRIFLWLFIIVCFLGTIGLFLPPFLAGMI

Neuronal acetylcholine receptor subunit alpha-3, sequence (P32297 whole entry): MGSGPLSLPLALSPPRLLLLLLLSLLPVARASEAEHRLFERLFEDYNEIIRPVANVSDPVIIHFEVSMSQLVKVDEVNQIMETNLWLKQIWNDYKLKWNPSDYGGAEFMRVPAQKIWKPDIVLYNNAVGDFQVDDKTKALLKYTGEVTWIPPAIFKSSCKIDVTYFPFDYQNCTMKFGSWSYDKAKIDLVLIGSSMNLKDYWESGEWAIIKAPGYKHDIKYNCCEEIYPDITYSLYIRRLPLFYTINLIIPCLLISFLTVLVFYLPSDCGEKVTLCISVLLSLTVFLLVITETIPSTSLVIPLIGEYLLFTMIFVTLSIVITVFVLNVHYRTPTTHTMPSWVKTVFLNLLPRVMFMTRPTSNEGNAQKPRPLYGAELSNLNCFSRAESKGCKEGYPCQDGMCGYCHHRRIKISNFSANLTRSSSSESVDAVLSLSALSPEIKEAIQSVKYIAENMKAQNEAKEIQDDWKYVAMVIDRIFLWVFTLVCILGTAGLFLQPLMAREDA
Neuronal acetylcholine receptor subunit alpha-4, sequence (P43681 whole entry): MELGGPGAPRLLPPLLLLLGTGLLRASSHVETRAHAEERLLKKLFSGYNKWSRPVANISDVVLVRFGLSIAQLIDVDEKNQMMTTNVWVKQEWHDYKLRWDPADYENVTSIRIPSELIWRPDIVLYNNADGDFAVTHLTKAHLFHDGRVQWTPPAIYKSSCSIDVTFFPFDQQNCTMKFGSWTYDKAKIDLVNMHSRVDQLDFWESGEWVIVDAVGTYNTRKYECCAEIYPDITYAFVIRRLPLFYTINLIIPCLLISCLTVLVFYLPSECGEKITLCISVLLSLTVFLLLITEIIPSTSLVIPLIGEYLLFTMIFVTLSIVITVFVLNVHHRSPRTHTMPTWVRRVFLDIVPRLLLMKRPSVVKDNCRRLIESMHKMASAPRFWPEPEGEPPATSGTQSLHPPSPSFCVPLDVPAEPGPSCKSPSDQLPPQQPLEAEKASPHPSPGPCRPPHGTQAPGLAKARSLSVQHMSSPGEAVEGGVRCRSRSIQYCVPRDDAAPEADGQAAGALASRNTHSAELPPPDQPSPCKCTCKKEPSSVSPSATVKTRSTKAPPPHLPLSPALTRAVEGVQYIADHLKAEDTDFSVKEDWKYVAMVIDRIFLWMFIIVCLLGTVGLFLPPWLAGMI

Compound | pKi [1] | pKi [2] | pKi [3]
C[N+]1(C)CCN(c2ccccc2)CC1 [DMPP] | < 5.00 | < 5.00 | < 5.00
CO[C@@H]1CC=C2CCN3CCC4=C(CC(=O)OC4)[C@@]23C1 | – | – | 5.29
CNC1(C)C2CCC(C2)C1(C)C (stereo not given) [Methyl-(2,3,3-trimethyl-bicyclo[2.2.1]hept-2-yl)-amine(Mecamylamine)] | 6.25 | – | 5.51
COc1cc2c3cc1Oc1cc(ccc1O)C[C@H]1c4c(cc(OC)c(O)c4Oc4ccc(cc4)C[C@@H]3N(C)CC2)CC[N+]1(C)C [CAS_57-94-3] | 6.07 | 6.14 | 5.65
O=c1cccc2n1C[C@H]1CNC[C@H]2C1 [(1S,9R)-7,11-diazatricyclo[7.3.1.0~2,7~]trideca-2,4-dien-6-one] | 6.29 | < 5.00 | –
CN1CCC[C@H]1c1cccnc1 [(R,S)-nicotine] | – | – | 5.00
C[N+](C)(C)CCOC(=O)CCCCCCC(=O)OCC[N+](C)(C)C [NSC_123990] | 5.95 | < 5.00 | 5.06

— BindingDB's records for PubMed 9454827 (Sibia Neurosciences, 1998)
